Reference: the NIST ThermoML archive (doi:10.1016/j.tca.2016.03.013)
Values joined by “and” are separate entries in the source; they are usually repeats but may differ in a detail not shown here. Equal values may be shown once.

Legend:
[1] = for vapor or sublimation pressure: Liquid, Rate of evaporation; for Normal melting temperature: DTA
[2] = Molar enthalpy of transition or fusion; settings: DSC
[3] = molar heat capacity at constant pressure; settings: 101.33 kPa, Small sample (50 mg) DSC

C1COCCOCCOCCOCCOCCO1 [1,4,7,10,13,16-hexaoxacyclooctadecane]
Settings | Molar enthalpy of transition or fusion [kJ/mol] | Normal melting temperature [°C] | vapor or sublimation pressure
[1], 430 K | – | – | 0.3102 kPa and 0.3376 kPa and 0.3358 kPa
[1], 435 K | – | – | 0.4315 kPa and 0.4219 kPa and 0.4305 kPa
[1], 440 K | – | – | 0.5414 kPa and 0.5488 kPa and 0.5487 kPa
[1], 445 K | – | – | 0.6904 kPa and 0.6934 kPa and 0.6846 kPa
[1], 450 K | – | – | 0.858 kPa and 0.8682 kPa and 0.8441 kPa
[1], 455 K | – | – | 1.063 kPa and 1.052 kPa
[1], 460 K | – | – | 1.315 kPa and 1.31 kPa and 1.317 kPa
[1], 465 K | – | – | 1.616 kPa and 1.619 kPa and 1.602 kPa
[1], 470 K | – | – | 1.972 kPa and 1.959 kPa and 1.967 kPa
[1], 475 K | – | – | 2.394 kPa and 2.387 kPa and 2.399 kPa
[1], 480 K | – | – | 2.879 kPa and 2.853 kPa and 2.858 kPa
[1], Crystal | – | 39.17 | –
[2], Crystal | 40 | – | –

[3]
Settings | molar heat capacity at constant pressure [J/K/mol]
290 K, Crystal | 380.3
291 K, Crystal | 388.3
292 K, Crystal | 394.8
293 K, Crystal | 401.7
294 K, Crystal | 409.8
295 K, Crystal | 418.9
296 K, Crystal | 428.4
297 K, Crystal | 440.7
298 K, Crystal | 457
298.15 K, Crystal | 460
299 K, Crystal | 479.4
315 K, Liquid | 515
320 K, Liquid | 516.5
325 K, Liquid | 518.7
330 K, Liquid | 521.5
335 K, Liquid | 522.8
340 K, Liquid | 524.9
345 K, Liquid | 526.3
350 K, Liquid | 527.8
355 K, Liquid | 528.8
410 K, Liquid | 562.4
415 K, Liquid | 567.4
420 K, Liquid | 573.6
425 K, Liquid | 578.6
430 K, Liquid | 582.6
435 K, Liquid | 587.1
440 K, Liquid | 590.4
445 K, Liquid | 595.2
450 K, Liquid | 599.4
455 K, Liquid | 603
460 K, Liquid | 607.7
465 K, Liquid | 612.5
470 K, Liquid | 617.4
475 K, Liquid | 621.3
480 K, Liquid | 626.4
485 K, Liquid | 630.9
490 K, Liquid | 635.9

[Al+3].[Al+3].[O-2].[O-2].[O-2] [aluminum oxide (Al2O3)]
[3], Crystal
Settings | molar heat capacity at constant pressure [J/K/mol]
298.15 K | 78.8
350 K | 88.2
450 K | 101.33

c1ccc2cc3ccccc3cc2c1 [anthracene]
[1]
Settings | vapor or sublimation pressure [kPa]
494 K | 5.794
496 K | 6.242
498 K | 6.713
500 K | 7.174
502 K | 7.662
504 K | 8.173
506 K | 8.694
508 K | 9.227
510 K | 9.775
512 K | 10.31

c1ccc2c(c1)OCCOCCOCCOc1ccccc1OCCOCCOCCO2 [dibenzo-24-crown-8]
Settings | Molar enthalpy of transition or fusion [kJ/mol] | Normal melting temperature [°C] | Triple point temperature [K] | vapor or sublimation pressure
[1], 545 K | – | – | – | 0.114 kPa and 0.1131 kPa and 0.1132 kPa
[1], 550 K | – | – | – | 0.1434 kPa and 0.1414 kPa and 0.1402 kPa
[1], 555 K | – | – | – | 0.1736 kPa and 0.1757 kPa and 0.1786 kPa
[1], 560 K | – | – | – | 0.2155 kPa and 0.2204 kPa and 0.2198 kPa
[1], 565 K | – | – | – | 0.2674 kPa and 0.2714 kPa and 0.2733 kPa
[1], 570 K | – | – | – | 0.3406 kPa and 0.3372 kPa and 0.3358 kPa
[1], 575 K | – | – | – | 0.4082 kPa and 0.4133 kPa and 0.4103 kPa
[1], 580 K | – | – | – | 0.4998 kPa and 0.5082 kPa and 0.5036 kPa
[1], 585 K | – | – | – | 0.607 kPa and 0.6171 kPa and 0.6145 kPa
[1], 590 K | – | – | – | 0.7381 kPa and 0.7487 kPa and 0.7461 kPa
[1], 595 K | – | – | – | 0.9028 kPa and 0.897 kPa and 0.9062 kPa
[1], Crystal 1 | – | 100.72 | – | –
[1], Crystal 2, DSC | – | – | 346.32 | –
[2], Crystal 1 | 53.7 | – | – | –
[2], Crystal 2 | 0.98 | – | – | –

[3]
Settings | molar heat capacity at constant pressure [J/K/mol]
295 K, Crystal 2 | 602
298.15 K, Crystal 2 | 611.3
300 K, Crystal 2 | 615.7
305 K, Crystal 2 | 627.3
310 K, Crystal 2 | 638.8
315 K, Crystal 2 | 648
320 K, Crystal 2 | 658.1
325 K, Crystal 2 | 668.9
330 K, Crystal 2 | 681.3
335 K, Crystal 2 | 692.8
340 K, Crystal 2 | 706.2
355 K, Crystal 1 | 755.6
360 K, Crystal 1 | 771.8
365 K, Crystal 1 | 802
380 K, Liquid | 921.2
385 K, Liquid | 922.5
390 K, Liquid | 927.3
395 K, Liquid | 930.4
400 K, Liquid | 934.6
405 K, Liquid | 938.7
410 K, Liquid | 943.5
415 K, Liquid | 947.5
420 K, Liquid | 956.1
425 K, Liquid | 962.6
430 K, Liquid | 968.4
435 K, Liquid | 974.4
440 K, Liquid | 979
445 K, Liquid | 985.6
450 K, Liquid | 990.7
455 K, Liquid | 996.8
460 K, Liquid | 1003.2
465 K, Liquid | 1009.9
470 K, Liquid | 1016.5
475 K, Liquid | 1020.4
480 K, Liquid | 1025.3
485 K, Liquid | 1030.6
490 K, Liquid | 1036.3
